As usually defined, the IC50 is the concentration needed to halve the response being measured. By bioavailability is commonly meant dose-corrected exposure relative to a reference, in per cent. As usually defined, the inhibition is the share of the control response that was lost under treatment.

Structures are written as SMILES.

Series [1] concerns the target T1, C-X-C chemokine receptor type 2 (Homo sapiens, UniProt P25025).
T1 sequence (P25025 whole entry): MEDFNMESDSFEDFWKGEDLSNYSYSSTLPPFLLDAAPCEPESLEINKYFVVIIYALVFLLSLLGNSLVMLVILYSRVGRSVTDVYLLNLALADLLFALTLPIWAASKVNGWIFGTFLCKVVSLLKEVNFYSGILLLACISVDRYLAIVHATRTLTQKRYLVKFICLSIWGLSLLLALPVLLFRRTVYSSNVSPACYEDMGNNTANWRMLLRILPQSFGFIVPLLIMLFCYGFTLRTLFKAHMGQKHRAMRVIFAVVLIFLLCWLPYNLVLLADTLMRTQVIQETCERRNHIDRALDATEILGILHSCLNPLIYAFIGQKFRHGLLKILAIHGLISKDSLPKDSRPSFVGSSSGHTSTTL
The series is described as follows: Displacement of [125I]IL-8 from human CXCR2 expressed in CHO cells. In kind it is cell-based.

Series [2] is filed under the species Homo sapiens. The series is described as follows: Selectivity ratio of IC50 for displacement of [125I]IL-8 from CXCR1 (unknown origin) to IC50 for displacement of [125I]IL-8 from CXCR2 (unknown origin). (Loss of bound radioactivity is the signal in a displacement assay; it reports binding, not function.)
For series [3], the target named is T1, C-X-C chemokine receptor type 2. The series is described as follows: Antagonist activity at CXCR2 in human U2OS cells assessed as effect on beta-arrestin2 recruitment by CCF4-AM staining based Tango assay. The class given is cell-based.
For series [4] the target is unchanged. The series is described as follows: Antagonist activity at CXCR2 (unknown origin) expressed in human U2OS cells cp-expressing betaarrestin-2/TEV protease and beta lactamase assessed as effect on beta-arrestin2 recruitment preincubated for 30 mins followed by IL-8 addition and further incubated for 5 hrs subsequently adding CCF4-AM staining and measured after 2 hrs by Tango assay. The class given is cell-based.

The target is the same in series [5]. The series is described as follows: Antagonist activity at GFP-tagged CXCR2 (unknown origin) expressed in 293T cells assessed as suppression of IL-8-induced inhibition of forskolin-stimulated cAMP accumulation preincubated for 10 mins followed by IL-8 addition and measured after 10 mins by cAMP assay. The class given is functional, cell-based. (In general: cAMP levels reflect the balance of adenylyl cyclase and phosphodiesterase activity.)

For a further series, the system named is SK-OV-3. The series is described as follows: Antitumor activity against human SKOV3 cells xenografted in athymic Nu/Nu mouse assessed as reduction in tumor volume at 10 mg/kg/day, ip co-treated with sorafenib 30 mg/kg, po relative to sorafenib alone. The class given is functional. On the set-up: scale not given: the % may be the effect or the level left. For orientation: In xenograft studies the graft and the host belong to different species.

Series [6] deals with T1, C-X-C chemokine receptor type 2. The series is described as follows: Antagonist activity at CXCR2 (unknown origin).
The target is the same in series [7]. The series is described as follows: Antagonist activity at CXCR2 in human neutrophils assessed as reduction in GROalpha stimulated intracellular calcium mobilisation by FLIPR assay. In kind it is functional, cell-based.
A short description of series [8]: Oral bioavailability in rat. In kind it is ADME, organism-based. To be noted: in vivo.
The target in series [9] is T2, C-X-C chemokine receptor type 2 (Homo sapiens) (UniProt P25025).
T2 sequence (whole entry): T1 sequence (P25025 whole entry)
The series is described as follows: Displacement of [125I]-IL-8 from human CXCR2 expressed in CHO cells membrane at 20 uM relative to control. In kind it is cell membranes.

The target in series [10] is T1, C-X-C chemokine receptor type 2. The series is described as follows: Displacement of [125I]IL-8 from CXCR2 in human neutrophils incubated for 3 hrs by gamma counting method.
Series [11] addresses T3, C-X-C chemokine receptor type 1 (Homo sapiens, UniProt P25024).
T3 sequence (P25024 whole entry): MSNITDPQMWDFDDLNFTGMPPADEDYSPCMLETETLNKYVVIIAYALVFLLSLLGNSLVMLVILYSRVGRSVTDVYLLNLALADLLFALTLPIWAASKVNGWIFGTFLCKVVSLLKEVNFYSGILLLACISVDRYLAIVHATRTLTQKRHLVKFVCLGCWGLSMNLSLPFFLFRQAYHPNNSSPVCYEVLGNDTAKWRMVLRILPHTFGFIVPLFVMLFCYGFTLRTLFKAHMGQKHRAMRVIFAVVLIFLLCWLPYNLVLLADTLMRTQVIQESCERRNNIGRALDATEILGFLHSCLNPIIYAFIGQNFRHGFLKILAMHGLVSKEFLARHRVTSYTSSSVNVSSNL
The series is described as follows: Displacement of [125I]IL-8 from CXCR1 in human neutrophils incubated for 3 hrs by gamma counting method.

In series [12] the target is T1, C-X-C chemokine receptor type 2. The series is described as follows: Antagonist activity at CXCR2 (unknown origin) stably expressed in HEK293 cells co-expressing Galpha16 assessed as reduction in IL-8-induced intracellular calcium change incubated for 10 mins by Fluo-4AM dye based fluorescence assay. The class given is functional, cell-based.
For series [13], the species on record is Homo sapiens. The series is described as follows: Selectivity ratio of IC50 for antagonist activity at CXCR1 (unknown origin) stably expressed in HEK293 cells co-expressing Galpha16 to antagonist activity at CXCR2 (unknown origin) stably expressed in HEK293 cells co-expressing Galpha16. The class given is cell-based.
Series [14] has as its target T3, C-X-C chemokine receptor type 1. The series is described as follows: Antagonist activity at CXCR1 (unknown origin) stably expressed in HEK293 cells co-expressing Galpha16 assessed as reduction in IL-8-induced intracellular calcium change incubated for 10 mins by Fluo-4AM dye based fluorescence assay. The class given is functional, cell-based.
For series [15], the system named is A375-SM. The series is described as follows: Antitumor activity against human A375SM cells xenografted in athymic nude mice assessed as reduction in blood vessels formation at 100 mg/kg, po for 21 days and measured on day 50 by immunohistochemistry relative to control. The class given is functional. On the set-up: scale not given: the % may be the effect or the level left.

In series [16] the test system is A375-SM. The series is described as follows: Antitumor activity against human A375SM cells xenografted in athymic nude mice assessed as reduction in tumor volume at 100 mg/kg, po for 21 days. The class given is functional.

As to `CC[C@@H](Nc1c(Nc2ccnc(C(=O)N(C)C)c2O)c(=O)c1=O)c1ccc(C)o1`, in [1], the 50% inhibitory concentration (IC50) turned out to be 2 nM. With `N#Cc1ccc(NC(=O)Nc2ccccc2Br)c(O)c1Br`, the Ratio IC50 in the series filed under Homo sapiens [2] was determined as 57. Turning to `CC1(C)CC(=O)C(C(=S)Nc2ccccc2)=C(NCc2ccccc2)C1`, the IC50 in series [3] came to 6300 nM. On to `C[C@@H](NC1=C(C(=O)Nc2ccc(Cl)c(C(F)(F)F)c2)C(=O)CC(C)(C)C1)c1ccccc1`, for which, in series [4], the IC50 stood at 2500 nM. Turning to `CCSc1nnc2n(-c3ccccc3)c(=O)c3c4c(sc3n12)CCC[C@H]4C`, the half-inhibitory concentration (IC50) in [5] is 7800 nM. Consider `O=C(Nc1ccc([N+](=O)[O-])cc1O)Nc1ccccc1Br`, for which the Activity in the series with SK-OV-3 is 42%. For the compound `CC(=O)c1c(C)oc2c1cc(NS(=O)(=O)c1ccc(C(C)(C)C)cc1)c1ccccc12`, in [4], the IC50 came out at 7600 nM. In series [6], `Cc1ccc([C@H](Nc2c(Nc3cccc(S(=O)(=O)N4CCN(C)CC4)c3O)c(=O)c2=O)[C@H]2CCCS2)o1` displayed a half-maximal inhibitory concentration (IC50) of 17 nM. On to `Sc1nc(-c2ccccc2Cl)nn1Cc1cccc(Cl)c1`, for which, in series [7], the IC50 is 48 nM. The compound further came in with a bioavailability in [8] of 61%. Consider `O=C(Nc1ccccc1)Nc1ccc([N+](=O)[O-])cc1O`, for which, in the series listed under Homo sapiens [2], the Ratio IC50 stood at 433. The compound `CS(=O)(=O)c1ccc(C(=O)Nc2ccc(F)cc2)c[n+]1[O-]` yielded an inhibition in series [9] of 93%. The compound `CCN(CC)Nc1c(Nc2cccc(C(=O)N(C)C)c2O)c(=O)c1=O` had an IC50 in [6] of 0.12 nM. For `CCN(CC)CCCCNc1nc2cc(Cl)c(Cl)cc2nc1-c1cc2ccccc2o1`, the half-maximal inhibitory concentration (IC50) in series [10] came to 30 nM; in series [11], 230 nM. Take `O=C(c1cccc(Nc2c(NC3C[C@@H]4CC[C@H]3C4)c(=O)c2=O)c1O)N1CCCC1` (stereo not given in full): the IC50 turned out to be 48 nM in [12] and 2900 nM in series [14]. Also, the Ratio IC50 in the series filed under Homo sapiens [13] was determined as 60. In the case of `CC[C@@H](Nc1c(Nc2cccc(C(=O)N(C)C)c2O)c(=O)c1=O)c1ccc(C)o1` [NAVARIXIN ANHYDROUS], the Activity in the series on A375-SM [15] stood at 45%. The “fold change (FC)” value in the series on A375-SM [16] worked out at 4.5.

The record behind these values is ChEMBL document CHEMBL4321855, “Targeting CXCR1/2: The medicinal potential as cancer immunotherapy agents, antagonists research highlights and challenges ahead” (Eur J Med Chem, 2020).
